Experimental data reported in patent publication US20180265867A1, “NUCLEIC ACID MOLECULES WITH ENHANCED ACTIVITY” (priority 2015, published 2018).
d = 2'-deoxy (DNA); r = 2'-OH (RNA)

Legend:
[1] = Thermal denaturation (Tm) of siRNA duplexes; type: physicochemical; conditions: for Tm: 7.5 mM phosphate buffer pH 7.0 containing 140 mM KCl, 1 μM strands, 40-95° C.; for Δ Tm: Tm relative to canonical siRNA (dT2); for drop in Tm: as compared to canonical siRNA
Protocol: Thermal denaturation studies of siRNA was carried out in phosphate buffer, pH 7.0, containing 140 mM KCl. UV absorbance was monitored at 260 nm in the temperature range from 40 to 95° C. using a Lambda 35 UV-Vis spectrophotometer equipped with a Peltier temperature programmer with a heating rate of 0.5° C./min. Samples (1 μM RNA) were denatured at 90° C. for 3 min followed by slow cooling to 27° C. prior to the measurements. Tm values were obtained from the maxima of the first derivatives of the melting curves. All Tm values given are the averages of three independent sets of experiments (±0.3° C. error range).

GAPDH = GAPDH gene knockdown in MG63 cells by RT-PCR; type: cell-based, human; conditions: MG63 cells; for GAPDH gene knockdown: 50 nM, 24 h
Protocol: At 70% confluency, a day prior to transfection, the cells were seeded at a density of 35 000 cells in a 24-well cell culture plate to achieve 60-80% confluence at the day of transfection. Cell penetrating siRNAs (cpRNAs) of different lengths were transfected at 50 nM concentrations with Magnet Assisted Transfection (MATra-si) reagent for siRNAs (IBA GmbH, Göttingen, Germany) according to the manufacturers' protocols. Briefly, the siRNA was mixed with MATra-si reagent composed of supermagnetic ironoxide nanoparticles and incubated for 20 min. A complex was formed which was added to the cells to be transfected. A strong magnetic force was applied beneath the cells for 15 min. This forced the complex to be drawn into the cells by the magnetic field, and as a result the siRNA was delivered directly into the cytosol. For carrier free transfection experiments, cpRNAs were simply added to cells lines MG63, HOB, HCT116, fibroblasts and keratinocytes at 50 nM concentrations. Cells were also transfected with negative control siRNA (scrambled sequence) and cells left untreated were taken as controls. Each transfection was performed in triplicate. Post transfection, cells were incubated for 24 hours.
For the experiments involving lysosomotropic agent chloroquine (CQ), CQ was first neutralized to pH 7.4 using 1 M NaOH prior to use. MG63 cells were transfected with dT2, dT5, dT8, (dT5)2, as(dT5), and bl(dT5) siRNA in presence or absence of 100 μM CQ or using MATra-si and incubated for 24 h. Similar experiments were performed for other cpRNAs namely, dA5, dT5, dG5, (dT5)2, rA5 and dC5. For the control experiment, cells were either left untreated or transfected with negative control siRNA (scrambled sequence). Each transfection experiment was performed in triplicate.
After performing transfection experiments for 24 h, 48 h and 72 h respectively, total RNA was isolated from cells by adding 500 μl of lysis buffer (Qiagen, Germany), followed by homogenization of cell lysates using QIAshredder (Qiagen, Germany). RNA was extracted from cell lysates by RNeasy Mini Kit (Qiagen, Germany). All RNA samples were treated with DNase using TURBO-DNAfree (Ambion, USA). Agilent 2100 BioAnalyzer (Agilent Technologies, Palo Alto, Calif.) was used to confirm high quality of all RNA samples, which reports an RNA Integrity Number (RIN) that takes into account the entire electrophoretic RNA trace produced in the analysis. A RIN of greater than or equal to seven indicates the RNA is suitable for high stringency applications.
cDNA synthesis was performed in triplicate using total RNA reverse transcribed using High Capacity cDNA reverse transcription kit (Applied Biosystems, USA), with non-template control added to ensure a lack of signal in assay background. Reactions were incubated on a 96-well Applied Biosystems 9800 Fast Thermal Cycler PCR System at 37° C. for 60 min followed by 95° C. for 5 min. The real-time PCR reactions were carried out with 10 μl of 2×TaqMan® Universal PCR Master Mix, no AmpErase® UNG (Applied Biosystems, USA), 9 μl diluted cDNA, and 1 μl of TaqMan gene specific assay mix in a 20 μl final reaction volume. Reference gene beta-actin (ACTB) (Applied Biosystems, USA) was selected as control for normalization of TaqMan data. The assay included a no-template control, a standard curve of five serial dilution points (in steps of 3-fold) of cDNA mixture. Probes specific for IFN-α (Hs01022060_m1), IFN-β (Hs01077958_s1), IFN-γ (Hs00985251_m1), ACTB(Hs01060665_g1) and GAPDH (Hs02758991_g1) were purchased from Applied Biosystems. The amplification was carried out using the 7500 Fast Real-Time PCR System (Applied Biosystems, USA) using a 40-cycle program. The 7500 software automatically calculates raw Ct (cycle threshold) values. Data from samples with a Ct value equal to or below 35 were further analyzed. […]

Ctnnb1 (β-Catenin) = test: Ctnnb1 expression in MC3T3-E1 cells by quantitative RT-PCR; type: cell-based, mouse
Protocol: MC3T3-E1 cells were cultured in α-MEM (Sigma-Aldrich, Haverhill, UK) medium containing 10% FBS, 1% L-Glutamine, and 1% antibiotics (PeSt) at 37° C. with 5% CO2. One day prior to the miRNA treatment, 35,000 cells were plated per each well of a 24-well plate. On the experiment day, cells were replaced with 2% heat inactivated-FBS containing α-MEM medium with 1% L-Glutamine, and 1% antibiotics (PeSt). miR-34a-CP (final concentration: 50 nM) was given to the each well. Mirvana scrambled miRNA mimic was used as a negative control.
After 24 hours of transfection, and incubation, RNA extraction was performed by using miRCURY RNA Isolation Kit—Cell and Plant (#300100) and protocol from Exiqon, Vedbæk, Denmark. RNA samples were treated with DNase for 30 minutes at 37 degrees, thereafter inactivated with a DNase inactivation solution (TUTRBO DNase AM2238 thermofisher). Thereafter, RNA concentrations were measured using NanoDrop ND-1000 from NanoDrop Technologies, Wilmington, Del.
The cDNA was made from the total RNA using High Capacity cDNA reverse transcription kit (Applied Biosystems, USA). Reactions were performed on a 96-well Bio-Rad Thermal Cycler PCR System at 37° C. for 60 minutes, and at 95° C. for 5 min respectively. Real-time PCR reactions were performed as follows: 10 μl of 2×TaqMan® Universal PCR Master Mix, no AmpErase® UNG (Applied Biosystems, USA), 9 μl 1:5 diluted cDNA, and 1 μl of TaqMan gene specific assay mix. Final volume of the reaction mix was 20 uL. Internal control gene beta-actin (ACTB) (Applied Biosystems, USA) was selected as control for normalization of TaqMan data. The qRT-PCR reaction comprised a non-template control of cDNA in order to rule out any non-specific reading. Taqman probes for Ctnnb1, Sox9, Actb, were obtained from Applied Biosystems. The qRT-PCR amplification was carried out using the Bio-Rad qRT-PCR Thermocycler.
In order to achieve the transfection reagent free delivery of therapeutically potential microRNAs, we tested miR-34a and compared with miR-34a-CP. Since microRNAs unlike siRNAs have multiple targets in the cell, and there is a necessity to reduce the off-target and undesirable effects if any, we have also designed siRNA model siR-34a-CP as stated above. We have used mouse preosteoblast cell line MC3T3-E1 obtained from calvarial bone for the in-vitro functional validation of cell-penetrating molecules. On the day before transfection experiment, 35000 MC3T3-E1 cells were cultured per each well of the 24-well culture plate in alpha-Minimum Essential Medium with 10% heat inactivated FBS, 1% L-Glutamine, 1% antibiotics (Pe/St). […] 5% CO2. Thereafter, RNA extraction, cDNA preparation, and quantitative real-time PCR was performed by using TaqMan procedure.

[2] = without transfection reagent MaTra (FIG. 12)

| Substance | Tm [1] [°C] | Δ Tm [1] [°C] | GAPDH gene knockdown (GAPDH; carrier-free transfection) [%] | also measured |
| --- | --- | --- | --- | --- |
| dA5: GAPDH siRNA, sense SEQ ID NO: 6 with dA5 3′-overhang, antisense SEQ ID NO: 2 with dT2 (sense CCGAGCCACAUCGCUCAGAAAAAA; antisense UCUGAGCGAUGUGGCUCGGTT; sense: sugars from the 5' end r19 d5, backbone not given here; antisense: sugars from the 5' end r19 d2, backbone not given here) | 79.6 | −1.6 | 80 | drop in Tm [1]: ~1.5 °C; RNAi activity among different 5-nt candidates (GAPDH; FIG. 2B): highest RNAi activity |
| rA5: GAPDH siRNA, sense SEQ ID NO: 9 with ribo A5 3′-overhang, antisense SEQ ID NO: 10 with U2 (sense CCGAGCCACAUCGCUCAGAAAAAA; antisense UCUGAGCGAUGUGGCUCGGUU; RNA, backbone not given here) | 79.0 | −2.2 | 60 | – |
| bl(dT5): GAPDH siRNA, sense SEQ ID NO: 3 with dT5, blunt ended antisense SEQ ID NO: 11 without overhang (sense CCGAGCCACAUCGCUCAGATTTTT; antisense UCUGAGCGAUGUGGCUCGG; sense: sugars from the 5' end r19 d5, backbone not given here; antisense: RNA, backbone not given here) | 79.1 | −2.1 | 60 | decrease in activity (GAPDH; 3′-dT2 of antisense strand removed, versus dT5): 20% |
| as(dT5): GAPDH siRNA, sense SEQ ID NO: 1 with dT2, antisense SEQ ID NO: 5 with dT5 3′-overhang (sense CCGAGCCACAUCGCUCAGATT; antisense UCUGAGCGAUGUGGCUCGGTTTTT; sense: sugars from the 5' end r19 d2, backbone not given here; antisense: sugars from the 5' end r19 d5, backbone not given here) | 79.5 | −1.7 | 20 | – |
| miR-34a: Natural miR-34a duplex, sense SEQ ID NO: 20, antisense SEQ ID NO: 21 (sense CAAUCAGCAAGUAUACUGCCCU; antisense UGGCAGUGUCUUAGCUGGUUGU; unmodified RNA) [reference compound] | – | – | – | Ctnnb1 expression (Ctnnb1 (β-Catenin); transfected with MaTra (FIG. 12)): induced over expression of Ctnnb1; Ctnnb1 expression (Ctnnb1 (β-Catenin); [2]): did not show any effect on the expression levels of Ctnnb1 |
| siR-34a-CP: Cell penetrating siRNA analog of miR-34a, sense SEQ ID NO: 24 with dA5, antisense SEQ ID NO: 25 (sense AAUCAGCUAAGUAUACUGCCAAAAAA; antisense UGGCAGUGUACUUAGCUGGUUGU; sense: sugars from the 5' end r21 d5, backbone not given here; antisense: RNA, backbone not given here) | – | – | – | Ctnnb1 expression (Ctnnb1 (β-Catenin); 50 nM, 24 h, alone without transfection reagent (FIG. 11)): up regulation of Ctnnb1; Ctnnb1 expression (Ctnnb1 (β-Catenin); [2]): up regulation of Ctnnb1 |
| (dT5)2: Symmetrical GAPDH siRNA, sense SEQ ID NO: 3 and antisense SEQ ID NO: 5, dT5 overhang at both 3′-ends (sense CCGAGCCACAUCGCUCAGATTTTT; antisense UCUGAGCGAUGUGGCUCGGTTTTT; sugars from the 5' end r19 d5, backbone not given here) | 80.1 | −1.1 | 65 | drop in Tm [1]: ~1 °C; enhancement in activity compared to canonical siRNA (GAPDH; MATra-si transfection): 10%; GAPDH gene knockdown (GAPDH; MATra-si transfection): 70% |
